{"source": "patent US20070059242A1", "about": "“METHODS TO IDENTIFY THERAPEUTIC AGENTS” (priority 2005, published 2007)", "test": "Aldolization of 4a with atherosclerotic artery and blood fractions (1H NMR)", "type": "in vitro ADME, human", "description": "Aldolization of secoketoaldehyde 4a with atherosclerotic artery and blood fractions. […] To this solution was added either a) atherosclerotic artery (2.1 mg) that had been homogenized in PBS (1 ml) in a tissue homogenizer and then lyophilized to dryness, b) lyophilized human blood (1 ml), c) lyophilized human plasma (1 ml) or d) PBS lyophilized (1 ml). At time points samples were removed and analyzed by ^1H NMR vide supra."}
{"smiles": "CC(C)CCC[C@@H](C)[C@H]1CCC2C(CC=O)C([C@@]3(C)CC[C@H](O)CC3=O)CC[C@@]21C", "note": "(stereo partly drawn) [4a, 3β-Hydroxy-5-oxo-5,6-secocholestan-6-al]", "values": [{"measurement": "conversion of 4a into 5a", "setting": "extracts from atheromatous arteries, 22 h", "result": "complete conversion"}, {"measurement": "aldolization of 4a", "setting": "lyophilized PBS", "result": "no aldolization"}, {"measurement": "conversion of 4a into 5a", "setting": "plasma, 15 h", "result": "complete conversion"}, {"measurement": "conversion of 4a into 5a", "setting": "serum, 15 h", "result": "complete conversion"}, {"measurement": "conversion of 4a into 5a", "setting": "whole blood, 15 h", "result": "complete conversion"}]}
